Data on two compounds can be found in US8653271B2 (priority 2006, dated 2014).

Values joined by “and” are separate entries in the source; they are usually repeats but may differ in a detail not shown here. Equal values may be shown once.

The conditions of series [1]: human skin; for Mean permeability coefficient (KP × 10^3): from steady-state flux and donor solubility; for Flux from mineral oil: saturated solution in light mineral oil, 32° C., 48 h, codrug in 6-β-naltrexol equivalents. The method, then:
Human skin harvested during abdominal reduction surgery was used for the diffusion studies. Skin sections were obtained by using a Padgett dermatome set to 250 μm; these sections were stored at −20° C. Stored skin samples were thawed to room temperature at the time of the experiment. A PermeGear flow-through (In-Line, Riegelsville, Pa., USA) diffusion cell system was used for the skin permeation studies. Skin surface temperature was maintained at 32° C. with a circulating water bath. Data was collected by using human skin from a single donor with three cells of 6-β-naltrexol and four cells CB-NTXOL-BUPOH. Because of normal human skin inter-subject permeation variability, the codrug was compared against 6-β-naltrexol permeation within each individual skin sample. These studies were repeated three times with skin from different human subject donors. The receiver solution was HEPES-buffered Hanks' balanced salt solution pH 7.4 set at a flow rate of 1.1 ml/h. […] A saturated solution of 6-β-naltrexol or CB-NTXOL-BUPOH in light mineral oil was applied to the skin in order to maintain a maximum and constant thermodynamic activity of the drug. Each cell was charged with 0.25 ml of the respective drug solution. […] All samples were immediately processed by solid phase extraction, evaporated under nitrogen, reconstituted, and analyzed for drug content by HPLC. The human tissue use was approved by the University of Kentucky Institutional Review Board.
Cumulative quantity of drug collected in the receiver compartment was plotted as a function of time. The flux value for a given experiment was obtained from the slope of the steady-state portion of the cumulative amount of drug permeated vs. time plot. Apparent permeability coefficient values were computed from Fick's First Law of diffusion:
Sink conditions were maintained in the receiver throughout the experiment, so ΔC was approximated by the drug concentration (solubility in this case) in the donor compartment.
The skin tissue was rinsed with filtered water and blotted with a paper towel. The tissue was tape-stripped twice to remove surface formulation. The area of skin with drug contact was cut out, chopped into tiny pieces, and placed in a pre-weighed vial. The vial was weighed to calculate the mass of the skin. Ten milliliters of acetonitrile was added to each vial, the vials vortexed, sonicated for 10 min, and placed in a shaker overnight. The following day, a 1 ml sample was obtained from the vials and placed in autosampler vials for analysis. […] Flux values and skin concentrations for each of the drugs were reported as mean±S.D and were statistically compared using a paired Student's t-test. Flux enhancement as well as drug disposition in the skin were considered significant at p<0.05.

Series [2] in a line: Permeation studies in guinea pigs in vivo (topical gel, plasma pharmacokinetics). More on the design: species or system hairless guinea pigs. The settings on record: for Enhancement factor (delivery of 6-β-naltrexol in vivo): codrug gel versus 6-β-naltrexol base gel, guinea pigs; for Tlag of 6-β-naltrexol: lag time to steady-state; for Tlag of 6-β-naltrexol / AUC0-48 of 6-β-naltrexol / Cmax of 6-β-naltrexol / Tmax of 6-β-naltrexol / Observed CSS of 6-β-naltrexol: topical gel; for Tlag of 6-β-naltrexol / Cmax of 6-β-naltrexol / Tmax of 6-β-naltrexol / Observed CSS of 6-β-naltrexol: hairless guinea pigs; for AUC0-48 of 6-β-naltrexol / Cmax of 6-β-naltrexol / Tmax of 6-β-naltrexol: plasma; for AUC0-48 of 6-β-naltrexol: 14.5 cm^2, hairless guinea pigs; for Observed CSS of 6-β-naltrexol: steady-state plasma concentration, 48 h; for intact codrug in guinea pig plasma after topical application: in vivo plasma samples. The method, then: A hydroxyethyl cellulose-based gel was prepared for topical application. First, either CB-NTXOL-BUPOH or 6-β-naltrexol (˜25 mg each) was dissolved in 1 ml of PG:buffer, pH 7.4 (2:3, v/v) solution using a magnetic stirrer. Hydroxyethyl cellulose (2%, w/w) was dispersed into these mixtures, sonicated, vortexed, and allowed to form a gel at room temperature. The drug in each formulation was saturated, forming a suspension.
Male and female Hairless IAF and Hartley guinea pigs (Charles River) weighing 345-482 g were used for topical studies (n=5 to 6 per treatment group). Prior to surgery, the animals were treated with glycopyrrolate and buprenorphine (to induce analgesia), and then ketamine (100 mg/kg, i.p.) and xylazine (8 mg/kg, i.m.) were used for anesthetic purposes. Catheters were surgically implanted into the jugular vein. A “blank” baseline plasma sample was drawn from each animal immediately before drug treatment. 500 μL of the gel containing the drug was applied onto the dorsal region of the guinea pig with a syringe and subsequently spread to cover an area of 7.25 cm^2. A rubber ring fitted with a drug-impermeable backing laminate (MEDIFLEX® 1502) was used to enclose the area of gel application. ARcare® acrylic adhesive was used to ensure that the ring maintained contact with the skin. Additionally, a bio-occlusive tape was placed over the patches to further secure the formulation on the guinea pigs. Drug formulations were applied on both sides of each guinea pig to give a total application area of 14.5 cm^2. Plasma samples were obtained at predetermined time intervals, which included 48 h while the formulations were on the animal, and for another 48 h after patches and formulations were removed. Blood samples were immediately centrifuged at 10,000×g for 3 min, and the plasma was separated. Plasma samples were stored at −70° C. until analysis by liquid chromatographic mass spectrometry, LC-MS.
Topical administration data were analyzed by non-compartmental analysis to determine mean steady-state plasma concentration (CSS), lag time to steady-state (tlag), and area under the curve from 0 to 48 h, AUC0-48.

Series [3] in a line: Plasma hydrolysis of the carbonate codrug. The series is classed as in vitro ADME, guinea pig. The settings on record: for Guinea pig plasma half-life: guinea pig plasma in vitro at 37° C. The method, then: Guinea pig plasma, which was stored at −20° C., was thawed to room temperature. Known and sub-saturated amounts of the codrug (50 nmol) were added to approximately 2.0 ml of the guinea pig plasma and vortexed. Two-hundred μl aliquots of the spiked plasma were distributed into sealed vials, and incubated at 37° C. Samples were withdrawn at predetermined time intervals; 0, 0.5, 1, 2, 4, 6, 9, 24, 30, and 48 h. 500 μl of ACN was added to each sample to precipitate plasma protein. Each sample was vortexed and centrifuged at 10,000×g for 15 min. The supernatant was separated and evaporated under nitrogen at room temperature, and the residue was reconstituted with ACN for high-pressure liquid chromatography (HPLC) analysis. A standard curve was prepared from drug-spiked plasma samples processed by the same method. The amounts of the codrug remaining or parent drugs released were plotted against time. These hydrolytic profiles were fit to previously developed mathematical models using nonlinear least-squares regression analysis ([…]®, Micromath Inc., Salt Lake City, Utah) as described by the equations below: […]

The next series can be described thus: physchem. The class given is physicochemical. To be noted: for Light mineral oil solubility: 32° C., 48 h equilibration (Table 3); for Hanks' buffer solubility: pH 7.4, 32° C., 30 min sonication. The method, then:
The solubilities of CB-NTXOL-BUPOH, hydroxybupropion, and 6-β-naltrexol were determined by adding excess quantity of drug to mineral oil or pre-warmed HEPES-buffered Hanks' salt solution pH 7.4 at 32° C. (skin surface temperature), with equilibration while shaking in a water bath at 60 rpm. Weighing 4 mg of each of the drugs and placing them in 1 ml of each of the respective solvents was enough to ensure that there was excess drug in solution. Samples were drawn into a pre-warmed glass syringe, filtered through a syringe filter (Mineral oil: Millex FG-13, Millipore, Billerica, Mass., USA, and buffer: nylon filter, Gelman, East Hills, N.Y., USA), and measured with respect to volume and diluted with an appropriate volume of acetonitrile or buffer. The drug from the buffer samples was immediately extracted by solid phase extraction as described above. Drugs in mineral oil were diluted with a hundred-fold volume of acetonitrile and extraction recoveries were >95% for all the drugs. The sampling procedure was done in triplicate, discarding the first 40% of the initial filtrate. […]. For buffer solubilities, samples were taken after 30 min of sonication (to minimize the hydrolysis of the codrug). No significant difference was found between 30 min sonication solubility measurements and equilibrium solubility measurements taken after 48 h for 6-β-naltrexol.

The mark [4] stands for this setting: cumulative 6-β-naltrexol equivalents permeated.

Regarding `Oc1ccc2c3c1O[C@H]1[C@H](O)CC[C@@]4(O)[C@@H](C2)N(CC2CC2)CC[C@]314` [Compound 2, 6-β-naltrexol], in series [1], the “Mean permeability coefficient (KP × 10^3)” value is given as 12.00 cm/h and the “Flux from mineral oil” value stood at 0.36 nmol cm^−2 h^−1. Moreover, in series [2], the “Enhancement factor (delivery of 6-β-naltrexol in vivo)” value came to 1, the “Tlag of 6-β-naltrexol” value is given as 5.1 ± 0.7 h, the “AUC0-48 of 6-β-naltrexol” value stood at 66.4 ± 7.9 ng·h/mL and the “Cmax of 6-β-naltrexol” value was 1.5 ± 0.2 ng/mL. Besides, in series [2], the “Tmax of 6-β-naltrexol” value was 28.1 ± 1.5 h; the “Observed CSS of 6-β-naltrexol” value was 1.25 ± 0.51 ng/mL and 1.2 ng/mL. Also, in series [2] (listed as NTXOL), the “Observed CSS of 6-β-naltrexol” value came out at 1.2 ± 0.5 ng/mL. In addition, in series [3], the “Guinea pig plasma half-life” value is listed as “stable”. Further, in the series “physchem”, the “Light mineral oil solubility” value is 30 µM and the “Hanks' buffer solubility” value stood at 300 µM.
Turning to `Cc1c(-c2cccc(Cl)c2)oc(=O)n1C(C)(C)COC(=O)Oc1ccc2c3c1OC1C(O)CCC4(O)C(C2)N(CC2CC2)CCC314` (stereo not drawn) [Compound 26], in series [1] (setting [4]), the “share of 6-β-naltrexol flux from intact CB-NTXOL-BUPOH” value is “approximately 35%” and the “share of 6-β-naltrexol flux originating from skin hydrolysis of codrug” value came to 65%. In series [1], the “Mean permeability coefficient (KP × 10^3)” value was 0.47 cm/h and the “Flux from mineral oil” value was 1.34 nmol cm^−2 h^−1. Further, in series [2], the “Enhancement factor (delivery of 6-β-naltrexol in vivo)” value is “five-fold”, the “Tlag of 6-β-naltrexol” value came out at 5.0 ± 1.1 h, the “AUC0-48 of 6-β-naltrexol” value stood at 282.0 ± 14.5 ng·h/mL and the “Cmax of 6-β-naltrexol” value was found to be 6.6 ± 0.4 ng/mL. The “Tmax of 6-β-naltrexol” value in series [2] was 10.1 ± 0.9 h. Moreover, in series [2] (listed as CB-NTXOL-BUPOH), the “intact codrug in guinea pig plasma after topical application” value is given as “only trace amounts of intact codrug”; the “Observed CSS of 6-β-naltrexol” value was 6.4 ng/mL and 6.4 ± 0.9 ng/mL. In series [2] (listed as codrug), the “intact codrug in guinea pig plasma after topical application” value is “Only trace amounts” and the “Observed CSS of 6-β-naltrexol” value amounted to 6.40 ± 0.93 ng/mL. Moreover, the “Guinea pig plasma half-life” value in series [3] (listed as CB-NTXOL-BUPOH) is 8.7 h. Moreover, the “Guinea pig plasma half-life” value in series [3] (listed as codrug) is “approximately 8.7 h”. Further, the “hydrolysis in guinea pig plasma compared to pH 7.4 phosphate buffer” value in series [3] (in vitro) was “almost three-fold faster hydrolysis”. In the series “physchem”, the “Light mineral oil solubility” value worked out at 2880 µM and the “Hanks' buffer solubility” value turned out to be 530 µM.
